# Patent publication US11921105B2, “Method for identifying positive allosteric modulators for odorant receptors” (FIRMENICH SA, priority 2017, dated 2024)
# Read-outs that look alike come from different tables or passages of the source.
# Columns and labels:
# OR10J5 [1] = biological target: T1, OR10J5 (Homo sapiens, UniProt Q8NHC4, R233W); experiment: OR10J5 (+−)-2,5-dimethyl-2-indanmethanol dose-response with test compound; type: cell-based
# T1 construct: Lucy (cleavable leucine-rich signal peptide) (N); FLAG (N); Rho (first 20 aa of bovine rhodopsin) (N); expressed in transfected cells
# T1 sequence (Q8NHC4 1-309 R233W): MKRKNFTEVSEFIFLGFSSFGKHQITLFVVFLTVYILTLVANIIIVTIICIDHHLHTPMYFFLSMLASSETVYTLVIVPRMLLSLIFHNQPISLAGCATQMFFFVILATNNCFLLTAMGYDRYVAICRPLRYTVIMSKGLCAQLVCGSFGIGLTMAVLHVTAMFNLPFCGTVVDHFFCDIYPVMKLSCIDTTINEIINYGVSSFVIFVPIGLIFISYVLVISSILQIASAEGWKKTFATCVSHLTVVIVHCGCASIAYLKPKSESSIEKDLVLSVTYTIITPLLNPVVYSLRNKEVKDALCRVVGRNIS
# Method: OR10J5 activity enhancement was tested with an additional agonist and with one of the test compounds and conditions described in the Examples above. Dose response curves to (+−)-2,5-dimethyl-2-indanmethanol was obtained in the presence of a steady concentration of the test compound and compared to a dose-response curve of the agonist alone. The resulting enhancement was quantified by means of EC50-fold shift (potency increase) and the efficacy span ratio (efficacy increase) as described above.
# OR10J5 [2] = biological target: T1, OR10J5; experiment: OR10J5 LYRAL® dose-response at serial enhancer concentrations, allosteric EC50 shift model; type: cell-based
# Method: Functional dose-response experiments were performed to reveal the allosteric nature of the interaction between heliopropanal, 3-(4-methylcyclohex-3-en-1-yl)butanal, melonal and heptanal and OR10J5. The level of enhancement of OR10J5's activation was evaluated at distinct concentrations of each enhancer. Using the same cell-based assay described earlier, dose response curves of OR10J5 to LYRAL® in the presence of serial concentrations of the enhancers spanning from 0 to 600 μM were performed, see FIG. 19. The curves were obtained by applying the simplified Allosteric EC50 shift effect equation (available in Prism7) derived from the ternary complex interaction model. The enhancement levels recorded were not linearly dependent on the concentration of the enhancer, and the following key parameters values for α (the cooperativity factor) and KB (the equilibrium dissociation constant of the enhancer) were obtained from the model for each enhancer: heliopropanal, α=6.3 and KB=10 μM; 3-(4-methylcyclohex-3-en-1-yl)butanal, α=7.5 and KB=15 μM; melonal, α=4.1 and KB=16 μM; and heptanal; α=3.2 and KB=51 μM. α>1 is indicative of positive allosteric modulation.
# OR5AN1 = biological target: T2, OR5AN1 (Homo sapiens, UniProt Q8NGI8); experiment: OR5AN1 MUSCENONE® dose-response at serial enhancer concentrations, allosteric EC50 shift model; type: cell-based; conditions: enhancer 0 to 1 mM; for Kb: read-out: KB (equilibrium dissociation constant)
# T2 construct: FLAG (N); Rho (first 20 aa of bovine rhodopsin) (N); expressed in transfected cells
# T2 sequence (Q8NGI8 1-311): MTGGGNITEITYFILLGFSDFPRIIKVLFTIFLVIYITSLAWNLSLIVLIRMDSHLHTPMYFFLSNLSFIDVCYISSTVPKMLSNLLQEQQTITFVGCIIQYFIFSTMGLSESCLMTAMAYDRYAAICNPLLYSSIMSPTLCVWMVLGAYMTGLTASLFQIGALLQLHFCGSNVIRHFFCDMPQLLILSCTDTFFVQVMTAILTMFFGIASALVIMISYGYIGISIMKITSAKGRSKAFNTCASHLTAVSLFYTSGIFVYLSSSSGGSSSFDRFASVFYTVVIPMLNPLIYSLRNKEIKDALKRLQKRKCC
# Method: The level of enhancement of OR5AN1's activation was evaluated at distinct concentrations of the enhancer. […] The curves were obtained by applying the simplified Allosteric EC50 shift effect equation (available in Prism5, v. 5.02) derived from the ternary complex interaction model. The enhancement levels recorded were not linearly dependent on the concentration of the enhancer, and the following key parameters values for a (the cooperativity factor) and KB (the equilibrium dissociation constant of TDA) obtained from the model: α=15.7 and KB=259 μM. α>1 is indicative of positive allosteric modulation.
# [3] = biological target: T3, OR10J5 olfactory receptor (Homo sapiens, UniProt Q8NHC4, R233W); experiment: Single point binary mixture screen (LYRAL® + test compound) for OR10J5 activity enhancement; type: cell-based; conditions: LYRAL® 4.6 and test compound 300 μM; numbered by decreasing OR10J5 activity (span)
# T3 construct: Lucy (cleavable leucine-rich signal peptide) (N); FLAG (N); Rho (first 20 aa of bovine rhodopsin) (N); expressed in transfected cells
# T3 sequence (Q8NHC4 1-309 R233W): T1 sequence (Q8NHC4 1-309 R233W)
# Description: The Lucy-Flag-Rho-tagged receptor is co-transfected with the olfactory canonical G-protein Golf and exposed to a binary mixture of a single concentration of a floral muguet compound and a test compound.
# A dose response curve showing the activation of OR10J5 in response to the floral muguet compound […], 4-(4-hydroxy-4-methylpentyl)cyclohex-3-ene-1-carbaldehyde or a mixture thereof (sold under the tradename LYRAL®, hereinafter referred to as “LYRAL®”) is shown in FIG. 15. Using a cell-based assay, OR10J5 activity was tested in a HEK293T cell line wherein the endogenous chaperone RTP1 gene has been activated and the odorant receptor chaperone was expressed according to the methods disclosed in International Patent Application Publication No. WO2016/201153 A1. The Flag-Rho-tagged receptor was co-transfected with the olfactory canonical G-protein Golf and was exposed to a binary mixture of a single concentration of LYRAL® and a test compound.
# A library of volatile compounds was used to create binary mixtures of each compound with LYRAL® at approximately EC20, a concentration eliciting only approximately 20% of full activity level of OR10J5 by itself. An activation cell-based assay was used for the initial enhancer candidate identification. Single binary mixture-induced receptor activity was detected by measuring the cAMP increase in the cytosol using an HTRF (Homogenous Time-Resolved Fluorescence unit) based kit (CisBio, cAMP dynamic 2 kit, 62AM4PEJ).
# 800 binary mixtures were created by mixing a LYRAL® stock solution with a stock solution of each test compound to a final concentration 4.6 and 300 μM, respectively. Stock solutions were made of compounds dissolved in pure DMSO. Each mixture was presented to a cell line expressing the OR10J5 olfactory receptor. The final concentration of DMSO in each binary mixture was 0.1%, and had no visible effect on the cells (see FIG. 16).
# The resulting activation was then measured and compared to LYRAL® alone (defining the baseline of the enhancement assay). The quality of the HTS process was determined and the window variability and signal reliability were assessed by calculating the Z′ value of each plate. […] These OR10J5 olfactory receptor agonists further confirmed that the dynamic range of the assay window was sufficient (as the responses recorded were well above baseline) and thus likely sensitive enough to detect even low levels of putative enhancement.
# human panelists = experiment: Human MUSCENONE® odor detection threshold (ODT), forced-choice triangle tests with background odor; type: in vivo; conditions: background compound at 0.1%; 2/3 correct responses
# Method: Sensitivity of human individuals to MUSCENONE® was evaluated by performing an odor detection threshold (ODT) test. The ODT test consisted of identifying the concentration for which 50%, preferably 66%, of the panelists are able to determine which of three containers contains the target compound MUSCENONE® in a forced-choice triangle tests. Two tests were performed to calculate the ODT in mixtures containing MUSCENONE® plus a perceivable background odor of chemically similar molecules a) the enhancer tridecylenic aldehyde and b) the non-enhancing volatile compound, nonanal.
# 27 panelists were given a series of triangle tests with increasing concentration of MUSCENONE® in the presence of nonanal at a concentration of 0.1%. Within each triangle test, the three samples contained nonanal at 0.1% and one sample also contained MUSCENONE®. In each triangle test, the panelists were asked to identify the one sample that was different from the other two samples. The ODT was calculated by fitting a non-linear regression model onto the data and calculating the MUSCENONE® concentration at which the proportion of correct responses was equal to 2/3 (66%, the midpoint between chance rate 1/3 and all correct answers 1). […]
# Olfr1440 = biological target: T4, Olfr1440 (Mus musculus, UniProt Q8VFV4); experiment: Olfr1440 MUSCENONE®-induced activation in the presence of enhancer (control); type: cell-based; conditions: FIG. 5
# T4 construct: expressed in transfected cells
# T4 sequence (Q8VFV4 1-315): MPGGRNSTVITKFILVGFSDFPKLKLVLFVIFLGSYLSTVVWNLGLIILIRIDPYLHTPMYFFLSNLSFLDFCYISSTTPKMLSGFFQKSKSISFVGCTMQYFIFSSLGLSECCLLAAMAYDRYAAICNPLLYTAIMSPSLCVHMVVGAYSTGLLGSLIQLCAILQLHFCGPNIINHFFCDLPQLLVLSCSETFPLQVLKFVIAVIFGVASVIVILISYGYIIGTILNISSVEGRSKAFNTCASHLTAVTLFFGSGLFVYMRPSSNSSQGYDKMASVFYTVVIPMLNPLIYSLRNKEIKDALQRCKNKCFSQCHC
# Method: Furthermore and as a control, a similar experiment was performed on the mouse MUSCENONE® responsive odorant receptor Olfr1440, the ortholog of OR5AN1.
# [4] = biological target: T5, OR5AN1 olfactory receptor (Homo sapiens, UniProt Q8NGI8); experiment: OR5AN1 dose-response of musk agonist with and without modulator, and of candidate alone (EC50 shift, span); type: cell-based
# T5 construct: FLAG (N); Rho (first 20 aa of bovine rhodopsin) (N); expressed in transfected cells
# T5 sequence (Q8NGI8 1-311): T2 sequence (Q8NGI8 1-311)
# Method: 15 candidates, marked as “enhancement” in Table 2 were identified. Strikingly, 80% of these putative enhancers (12/15) belonged to the same class of chemicals: unsaturated aliphatic aldehydes. Next, two parallel dose-response experiments to confirm the true enhancement properties of the potential candidates were performed. First, a dose-response of each individual candidate was performed to determine if it was an agonist by itself. Second, a MUSCENONE® dose-response curve in the presence and absence of a 250 μM concentration of the putative modulator was assessed for EC50 shifts.
# Dose response curves to MUSCENONE® were obtained in the presence of 250 μM of each compound and compared to a dose-response curve of MUSCENONE® alone. The resulting enhancement was quantified by means of EC50-fold shift (potency increase) and the efficacy span ratio (efficacy increase).
# The EC50-fold shift was obtained by […]. The span ratio was obtained by dividing the span of MUSCENONE®+compound by the reference span of MUSCENONE® alone. Specifically, diverse aliphatic α-β mono- or poly-unsaturated molecules have been compared.
# [5] = LYRAL®, enhancer 0 to 600 μM, read-out: KB (equilibrium dissociation constant of the enhancer)
compound,measurement,setting,value
"Cc1ccc2c(c1)CC(C)(CO)C2 (racemic) [(+−)-2,5-dimethyl-2-indanmethanol, reference compound]",agonist type on OR10J5,OR10J5 [1],partial agonist
CC1=CC[C@H](C(C)CC=O)CC1 (stereo partly drawn) [3-(4-methylcyclohex-3-en-1-yl)butanal],α (cooperativity factor),"OR10J5 [2]; LYRAL®, enhancer 0 to 600 μM",7.5
same,Kb,OR10J5 [2]; [5],15 µM
CCCCCCC=O [Heptanal],α (cooperativity factor),"OR10J5 [2]; LYRAL®, enhancer 0 to 600 μM",3.2
same,Kb,OR10J5 [2]; [5],51 µM
"CCCCCCCC=CC=O [Hit 2-decenal, 2-decenal]",α (cooperativity factor),OR5AN1,37.3
same,Kb,OR5AN1,264 µM
CC/C=C\CCCCC=O [Hit 23],Hit Type,[3],Enhancement
CCCCCC=O [Hit 24],Hit Type,[3],Enhancement
C[C@@H](CC=O)CCCC(C)(C)O [Hit 25],Hit Type,[3],Agonist
CC(C)=CCCC1=CCC(C)(C=O)CC1 (stereo not drawn) [Hit 26],Hit Type,[3],Enhancement
CC(C)=CCCC(C)C=O (stereo not drawn) [Hit 27],Hit Type,[3],Enhancement
O=Cc1ccccc1 [Hit 28],Hit Type,[3],Enhancement
CCCCC/C=C/C=C/C=O [Hit 32],Hit Type,[3],Enhancement
CCCCCCCCC=O [Hit 33],Hit Type,[3],Enhancement
C=CC(C)CCCC(C)(C)O (stereo not drawn) [Hit 34],Hit Type,[3],Agonist
CCCCCCC1CCCC(=O)O1 (stereo not drawn) [Hit 35],Hit Type,[3],Enhancement
Cc1ccc(CC(C)C=O)cc1 (stereo not drawn) [Hit 36],Hit Type,[3],Enhancement
O=Cc1ccc2c(c1)OCO2 [Hit 37],Hit Type,[3],Enhancement
CC1=CC(C)C(C=O)C(C)C1 (stereo not drawn) [Hit 39],Hit Type,[3],Enhancement
CCc1occc(=O)c1O [Hit 40],Hit Type,[3],Enhancement
CCc1ccc(C=O)cc1 [Hit 41],Hit Type,[3],Enhancement
C[C@@H]1CC[C@H]2[C@H](C)C(=O)O[C@@H]2C1 [Hit 42],Hit Type,[3],Enhancement
COC(C)(C)CCCC(C)C=O (stereo not drawn) [Hit 43],Hit Type,[3],Enhancement
CCCCCC/C=C/C=O [Hit 44],Hit Type,[3],Enhancement
CCCCCC/C=C/C=O [Nonylenic aldehyde],α (cooperativity factor),OR5AN1,28.8
same,Kb,OR5AN1,96 µM
"CCCCCCCCCC/C=C/C=O [TDA, tridecylenic aldehyde]",MUSCENONE® ODT value when mixed with the compound,human panelists,0.09%
same,enhancement of Olfr1440 MUSCENONE®-induced activity,Olfr1440,did not enhance
same,activation of OR5AN1 by the compound by itself,[4]; compound alone,did not activate
same,activation as % of the MUSCENONE® activation window,"[4]; compound alone, above approximately 100 μM",less than 8%
same,maximal activation level (span) of MUSCENONE®,[4]; enhancer at 250 μM,increased span
CC(C=O)Cc1ccc2c(c1)OCO2 (stereo not drawn) [heliopropanal],Kb,OR10J5 [2],10 µM
same,α (cooperativity factor),"OR10J5 [2]; LYRAL®, enhancer 0 to 600 μM",6.3
same,"efficacy increase of (+−)-2,5-dimethyl-2-indanmethanol",OR10J5 [1]; within the dynamic range of the dose response,1.7 fold
CC(C)=CCCC(C)C=O (stereo not drawn) [melonal],α (cooperativity factor),"OR10J5 [2]; LYRAL®, enhancer 0 to 600 μM",4.1
same,Kb,OR10J5 [2]; [5],16 µM
"CCCCCCCCC=O [nonanal, reference compound]",MUSCENONE® ODT value when mixed with the compound,human panelists,0.93%
C=CCCCCCCCCC(=O)O [undecenoic acid],enhancement of OR5AN1 MUSCENONE® response (SAR),[4]; 250 μM of each compound,absence of enhancement
